Source: patent US4545993A, “1,2-Benzopyran-6-yl acetic acid compound and pharmaceutical compositions containing said compounds” (priority 1981, dated 1985)

Assays:
[1] = Acute toxicity, oral, number of deaths up to 72 hours; conditions: mouse, in vivo
Procedure: Groups of 10 male dd mice weighing some 18 g, were orally administered 800 mg/Kg of each of the examined drugs and the number of deaths up to 72 hours later was recorded.

[2] = tested on: pseudopain reactions (dd mice); assay: Analgesic effects by a modified Haffner method; type: in vivo; conditions: oral, with 2 mg/Kg morphine hydrochloride s.c.
Procedure: Groups of 10 dd mice were orally administered the examined drugs and 30 minutes later 2 mg/Kg of morphine hydrochloride, the threshhold dose, was subcutaneously injected. At 15, 30, 45 and 60 minute intervals thereafter, the root of the mouse's tail was squeezed with a Kocher's forcepts.

[3] = tested on: stretching after acetic acid (male dd mice); assay: Analgesic effects by acetic acid writhing test; type: in vivo; conditions: oral, 0.6% acetic acid i.p.
Procedure: Thirty minutes after the examined drug was orally given, 0.1 ml/10 g of 0.6% acetic acid was intraperitoneally administered to groups of 10 male dd mice weighing some 18 g. The number of stretching was calculated during an observation period of 15 to 20 minutes after acetic acid treatment. The average inhibition rate of stretching among 8 animals was regarded as the inhibition rate of the drug, excluding 2 animals showing maximum and minimum numbers of stretching.

[4] = 800 mg/Kg, oral, male dd mice, up to 72 hours

Structure (SMILES) | mortality at 72 h ([1]; po, 800 mg/kg) | Analgesic effects (modified Haffner method) ([2]; 50 mg/Kg) | Analgesic effects (modified Haffner method) ([2]; 100 mg/Kg) | mortality at 72 h [1, 4] | Analgesic effects (acetic acid writhing test; average inhibition rate of stretching) ([3]; 50 mg/Kg) | Analgesic effects (acetic acid writhing test; average inhibition rate of stretching) ([3]; 100 mg/Kg)
CCCCC1C(=O)N(c2ccccc2)N(c2ccccc2)C1=O [Phenylbutazone, reference compound] | 60% |  |  |  |  | 
O=C(O)Cc1cc(Cl)c2c(c1)C=CCO2 [Compound 5, (8-Chloro-1,2-benzopyran-6-yl)acetic acid] |  | 35% | 70% |  |  | 
CC(C(=O)O)c1cc(Cl)c2c(c1)CCC(C)(C)O2 (centres unmarked) [Compound 6, 2-(2,2-dimethyl-8-chlorochroman-6-yl)propionic acid] |  | 30% | 60% | 30% | 27% | 68%
CC(C(=O)O)c1cc(Cl)c2c(c1)C=CC(C)(C)O2 (centres unmarked) [Compound 3, 2-(2,2-Dimethyl-8-chloro-1,2-benzopyran-6-yl)propionic acid] |  | 20% | 65% | 0% |  | 
CC(C(=O)O)c1ccc2c(c1)C=CC(C)(C)O2 (centres unmarked) [Compound 2, 2-(2,2-Dimethyl-1,2-benzopyran-6-yl)propionic acid] |  | 25% | 50% | 0% | 44% | 76%
Cc1c(N(C)C)c(=O)n(-c2ccccc2)n1C [Aminopyrine, reference compound] |  | 20% | 55% | 80% | 18% | 57%
CC(C(=O)O)c1cc(Cl)c2c(c1)C=CCO2 (centres unmarked) [Compound 4, 2-(8-Chloro-1,2-benzopyran-6-yl)propionic acid] |  | 30% | 55% | 30% | 36% | 61%
CC(C(=O)O)c1cc(Cl)c2c(c1)CCCO2 (centres unmarked) [Compound 7, 2-(8-Chlorochroman-6-yl)propionic acid] |  |  |  | 0% |  | 
CC(C(=O)O)c1cc(F)c2c(c1)C=CC(C)(C)O2 (centres unmarked) [Compound 1, 2-(2,2-dimethyl-8-fluoro-1,2-benzopyran-6-yl)propionic acid] |  | 40% | 70% | 0% | 59% | 76%
